# In article PMC8330742, “New benzothieno[2,3-c]pyridines as non-steroidal CYP17 inhibitors: design, synthesis, anticancer screening, apoptosis induction, and in silico ADME profile studies” (Journal of Enzyme Inhibition and Medicinal Chemistry, 2021):
# Experiments:
# [1] = test system: COLO 205; assay: NCI-60 SRB screen; type: cell-based, human; settings: Homo sapiens; COLO 205; single dose 10^−5 M; read-out: Growth inhibition (%)
# [2] = test system: LOX IMVI; assay: NCI-60 SRB screen; type: cell-based, human; settings: Homo sapiens, single dose 10^−5 M, read-out: Growth inhibition (%)
# [3] = test system: SN12C; assay: NCI-60 SRB screen; type: cell-based, human; settings: Homo sapiens, SN12C; SN 12 C; single dose 10^−5 M; read-out: Growth inhibition (%)
# [4] = test system: MALME-3M; assay: NCI-60 SRB screen; type: cell-based, human; settings: Homo sapiens, single dose 10^−5 M, read-out: Growth inhibition (%)
# [5] = test system: SK-OV-3; assay: NCI-60 SRB screen; type: cell-based, human; settings: Homo sapiens; SK-OV-3; single dose 10^−5 M; read-out: Growth inhibition (%)
# [6] = test system: UO-31; assay: NCI-60 SRB screen; type: cell-based, human; settings: Homo sapiens; UO-31; single dose 10^−5 M; read-out: Growth inhibition (%)
# [7] = test system: KM12; assay: NCI-60 SRB screen; type: cell-based, human; settings: Homo sapiens; KM12; single dose 10^−5 M; read-out: Growth inhibition (%)
# [8] = test system: panel of 60 cancer cell lines; assay: NCI-60 SRB screen, mean or range over the panel; type: cell-based, human; settings: Homo sapiens; mean over the cell lines; single dose 10^−5 M; read-out: Mean growth inhibition (%)
# [9] = test system: IGROV1; assay: NCI-60 SRB screen; type: cell-based, human; settings: Homo sapiens, IGROV-1; IGROV1; single dose 10^−5 M; read-out: Growth inhibition (%)
# [10] = test system: UACC-62; assay: NCI-60 SRB screen; type: cell-based, human; settings: Homo sapiens; UACC-62; single dose 10^−5 M; read-out: Growth inhibition (%)
# [11] = test system: HL-60(TB); assay: NCI-60 SRB screen; type: cell-based, human; settings: Homo sapiens; HL-60 (TB); single dose 10^−5 M; read-out: Growth inhibition (%)
# [12] = test system: NCI-H522; assay: NCI-60 SRB screen; type: cell-based, human; settings: Homo sapiens; NCI-H522; single dose 10^−5 M; read-out: Growth inhibition (%)
# [13] = test system: A549/ATCC; assay: NCI-60 SRB screen; type: cell-based, human; settings: Homo sapiens, single dose 10^−5 M, read-out: Growth inhibition (%)
# [14] = test system: TK-10; assay: NCI-60 SRB screen; type: cell-based, human; settings: Homo sapiens; TK-10; single dose 10^−5 M; read-out: Growth inhibition (%)
# [15] = test system: OVCAR-8; assay: NCI-60 SRB screen; type: cell-based, human; settings: Homo sapiens; OVCAR-8; single dose 10^−5 M; read-out: Growth inhibition (%)
# [16] = test system: NCI-H322M; assay: NCI-60 SRB screen; type: cell-based, human; settings: Homo sapiens, single dose 10^−5 M, read-out: Growth inhibition (%)
# [17] = test system: MOLT-4; assay: NCI-60 SRB screen; type: cell-based; settings: Homo sapiens; MOLT-4; single dose 10^−5 M; read-out: Growth inhibition (%)
# [18] = test system: ACHN; assay: NCI-60 SRB screen; type: cell-based; settings: Homo sapiens, single dose 10^−5 M, read-out: Growth inhibition (%)
# [19] = test system: NCI-H23; assay: NCI-60 SRB screen; type: cell-based, human; settings: Homo sapiens; NCI-H23; single dose 10^−5 M; read-out: Growth inhibition (%)
# [20] = test system: SW-620; assay: NCI-60 SRB screen; type: cell-based; settings: Homo sapiens; SW-620; single dose 10^−5 M; read-out: Growth inhibition (%)
# [21] = test system: HT-29; assay: NCI-60 SRB screen; type: cell-based; settings: Homo sapiens; HT-29; single dose 10^−5 M; read-out: Growth inhibition (%)
# [22] = test system: NCI-H226; assay: NCI-60 SRB screen; type: cell-based, human; settings: Homo sapiens; NCI-H226; single dose 10^−5 M; read-out: Growth inhibition (%)
# [23] = test system: HOP-92; assay: NCI-60 SRB screen; type: cell-based, human; settings: Homo sapiens; HOP-92; single dose 10^−5 M; read-out: Growth inhibition (%)
# [24] = test system: HOP-62; assay: NCI-60 SRB screen; type: cell-based, human; settings: Homo sapiens; HOP-62; single dose 10^−5 M; read-out: Growth inhibition (%)
# [25] = test system: CAKI-1; assay: NCI-60 SRB screen; type: cell-based, human; settings: Homo sapiens; CAKI-1; single dose 10^−5 M; read-out: Growth inhibition (%)
# [26] = test system: 786-0; assay: NCI-60 SRB screen; type: cell-based; settings: Homo sapiens; 786-0; single dose 10^−5 M; read-out: Growth inhibition (%)
# [27] = test system: M14; assay: NCI-60 SRB screen; type: cell-based, human; settings: Homo sapiens; M14; single dose 10^−5 M; read-out: Growth inhibition (%)
# [28] = test system: OVCAR-3; assay: NCI-60 SRB screen; type: cell-based, human; settings: Homo sapiens; OVCAR-3; single dose 10^−5 M; read-out: Growth inhibition (%)
# [29] = test system: K-562; assay: NCI-60 SRB screen; type: cell-based, human; settings: Homo sapiens, K562; K-562; single dose 10^−5 M; read-out: Growth inhibition (%)
# [30] = test system: SK-MEL-5; assay: NCI-60 SRB screen; type: cell-based, human; settings: Homo sapiens; SK-MEL-5; single dose 10^−5 M; read-out: Growth inhibition (%)
# [31] = test system: HCT-116; assay: NCI-60 SRB screen; type: cell-based, human; settings: Homo sapiens; HCT-116; single dose 10^−5 M; read-out: Growth inhibition (%)
# [32] = test system: HCC-2998; assay: NCI-60 SRB screen; type: cell-based, human; settings: Homo sapiens; HCC-2998; single dose 10^−5 M; read-out: Growth inhibition (%)
# [33] = test system: EKVX; assay: NCI-60 SRB screen; type: cell-based, human; settings: Homo sapiens, single dose 10^−5 M, read-out: Growth inhibition (%)
# [34] = test system: SK-MEL-2; assay: NCI-60 SRB screen; type: cell-based, human; settings: Homo sapiens; SK-MEL-2; single dose 10^−5 M; read-out: Growth inhibition (%)
# [35] = test system: UACC-257; assay: NCI-60 SRB screen; type: cell-based, human; settings: Homo sapiens, UACC-257; UACC-275 (so in the source); single dose 10^−5 M; read-out: Growth inhibition (%)
# [36] = test system: RXF 393; assay: NCI-60 SRB screen; type: cell-based, human; settings: Homo sapiens; RXF 393; single dose 10^−5 M; read-out: Growth inhibition (%)
# [37] = test system: SF-295; assay: NCI-60 SRB screen; type: cell-based, human; settings: Homo sapiens; SF-295; single dose 10^−5 M; read-out: Growth inhibition (%)
# [38] = test system: NCI-H460; assay: NCI-60 SRB screen; type: cell-based, human; settings: Homo sapiens; NCI-H460; single dose 10^−5 M; read-out: Growth inhibition (%)
# [39] = test system: SK-MEL-28; assay: NCI-60 SRB screen; type: cell-based; settings: Homo sapiens; SK-MEL-28; single dose 10^−5 M; read-out: Growth inhibition (%)
# [40] = test system: NCI/ADR-RES; assay: NCI-60 SRB screen; type: cell-based, human; settings: Homo sapiens, single dose 10^−5 M, read-out: Growth inhibition (%)
# [41] = test system: HCT-15; assay: NCI-60 SRB screen; type: cell-based, human; settings: Homo sapiens; HCT-15; single dose 10^−5 M; read-out: Growth inhibition (%)
# [42] = test system: OVCAR-4; assay: NCI-60 SRB screen; type: cell-based, human; settings: Homo sapiens; OVCAR-4; single dose 10^−5 M; read-out: Growth inhibition (%)
# [43] = test system: SF-268; assay: NCI-60 SRB screen; type: cell-based, human; settings: Homo sapiens; SF-268; single dose 10^−5 M; read-out: Growth inhibition (%)
# [44] = test system: CCRF-CEM; assay: NCI-60 SRB screen; type: cell-based; settings: Homo sapiens, single dose 10^−5 M, read-out: Growth inhibition (%)
smiles,measurement,setting,value
"COc1ccc(C2NC(=O)C(Cl)c3c2sc2c(F)cccc32)c(OC)c1 (stereo not shown) [Compound 4a, 4-Chloro-1-(2,4-Dimethoxyphenyl)-8-fluoro-1,2-dihydro[1]benzothieno [2,3-c]pyridine-3(4H)-one]",inhibition at 10 µM,[1],-16.7%
same,inhibition at 10 µM,[2],4.84%
same,inhibition at 10 µM,[3],9.45%
same,inhibition at 10 µM,[4],9.21%
same,inhibition at 10 µM,[5],0.53%
same,inhibition at 10 µM,[6],40.3%
same,inhibition at 10 µM,[7],3.86%
same,inhibition at 10 µM,[8],1.85%
same,inhibition at 10 µM,[9],10.3%
same,inhibition at 10 µM,[10],10.9%
same,inhibition at 10 µM,[11],0.73%
same,inhibition at 10 µM,[12],8.58%
same,inhibition at 10 µM,[13],-4.25%
same,inhibition at 10 µM,[14],-25.5%
same,inhibition at 10 µM,[15],-0.71%
same,inhibition at 10 µM,[16],-4.72%
same,inhibition at 10 µM,[17],4.69%
same,inhibition at 10 µM,[18],12.4%
same,inhibition at 10 µM,[19],1.72%
same,inhibition at 10 µM,[20],-0.16%
same,inhibition at 10 µM,[21],-10.5%
same,inhibition at 10 µM,[22],13.6%
same,inhibition at 10 µM,[23],9.64%
same,inhibition at 10 µM,[24],9.42%
same,inhibition at 10 µM,[25],27.5%
same,inhibition at 10 µM,[26],4.93%
same,inhibition at 10 µM,[27],3.25%
same,inhibition at 10 µM,[28],1.99%
same,inhibition at 10 µM,[29],12.5%
same,inhibition at 10 µM,[30],-1.74%
same,inhibition at 10 µM,[31],-2.4%
same,inhibition at 10 µM,[32],-7.97%
same,inhibition at 10 µM,[33],2.22%
same,inhibition at 10 µM,[34],-23.2%
same,inhibition at 10 µM,[35],-12.8%
same,inhibition at 10 µM,[36],-0.71%
same,inhibition at 10 µM,[37],-2.33%
same,inhibition at 10 µM,[38],-1.09%
same,inhibition at 10 µM,[39],-1.74%
same,inhibition at 10 µM,[40],-5.94%
same,inhibition at 10 µM,[41],-9.27%
same,inhibition at 10 µM,[42],-1.63%
same,inhibition at 10 µM,[43],9.64%
same,inhibition at 10 µM,[44],-1.02%
"COc1ccc(C2NC(=O)C(Cl)c3c2sc2c(F)cccc32)cc1 (stereo not shown) [Compound 4b, 4-Chloro-8-fluoro-1-(4-methoxyphenyl)-1,2-dihydro[1]benzothieno[2,3-c] pyridine-3(4H)-one]",inhibition at 10 µM,[1],-20.5%
same,inhibition at 10 µM,[2],6.46%
same,inhibition at 10 µM,[3],3.66%
same,inhibition at 10 µM,[4],10.8%
same,inhibition at 10 µM,[5],-2.04%
same,inhibition at 10 µM,[6],71.7%
same,inhibition at 10 µM,[7],7.6%
same,inhibition at 10 µM,[8],8.66%
same,inhibition at 10 µM,[9],4.86%
same,inhibition at 10 µM,[10],8.74%
same,inhibition at 10 µM,[11],-5.26%
same,inhibition at 10 µM,[12],21.7%
same,inhibition at 10 µM,[13],55.5%
same,inhibition at 10 µM,[14],-38.1%
same,inhibition at 10 µM,[15],2.95%
same,inhibition at 10 µM,[16],22%
same,inhibition at 10 µM,[17],7.88%
same,inhibition at 10 µM,[18],-3.2%
same,inhibition at 10 µM,[19],6.41%
same,inhibition at 10 µM,[20],6.49%
same,inhibition at 10 µM,[21],-6.98%
same,inhibition at 10 µM,[22],7.14%
same,inhibition at 10 µM,[23],16.4%
same,inhibition at 10 µM,[24],17.2%
same,inhibition at 10 µM,[25],17.7%
same,inhibition at 10 µM,[26],-0.46%
same,inhibition at 10 µM,[27],3.86%
same,inhibition at 10 µM,[28],0.61%
same,inhibition at 10 µM,[29],31.3%
same,inhibition at 10 µM,[30],-0.07%
same,inhibition at 10 µM,[31],1.62%
same,inhibition at 10 µM,[32],-6.39%
same,inhibition at 10 µM,[33],23%
same,inhibition at 10 µM,[34],-18.3%
same,inhibition at 10 µM,[35],-6.58%
same,inhibition at 10 µM,[36],9.68%
same,inhibition at 10 µM,[37],1.82%
same,inhibition at 10 µM,[38],31.4%
same,inhibition at 10 µM,[39],-0.07%
same,inhibition at 10 µM,[40],9.18%
same,inhibition at 10 µM,[41],14.2%
same,inhibition at 10 µM,[42],7.51%
same,inhibition at 10 µM,[43],14.3%
same,inhibition at 10 µM,[44],-0.42%
